Measurements from patent US10421761B2, “Compounds for kinase modulation, and indications therefor” (Plexxikon Inc., priority 2013, dated 2019).
“Also recorded” adds a separate entry of the source. Like-named read-outs stand apart in the source and are kept apart here.

Experiments:
B9 cells = assay: Anchorage-independent growth assay of B9 cells in soft agar; type: cell-based, mouse; conditions: 3 weeks; for effect on vemurafenib-induced B9 colony formation: combination with vemurafenib, soft agar
Description: Anchorage-independent growth assay. 2.5×10^4 B9 cells were plated in each well of a six-well plate with a bottom layer of 1% and a top layer of 0.4% low melting agar (Sigma A4018, Dallas, Tex.) containing RPMI1640 medium with 10% FBS. For RAF inhibitor study, B9 cells grown in soft agar were treated with vemurafenib, compound P-1000 or compound A at indicated concentration or dimethyl sulfoxide (DMSO) for 3 weeks. For EGFR ligand study, B9 cells grown in soft agar were treated with AREG (R&D systems 989-AR, Minneapolis, Minn.), TGFα (R&D systems 239-A, Minneapolis, Minn.) or HB-EGF (R&D systems 259-HE, Minneapolis, Minn.) at the indicated concentrations for 3 weeks. For vemurafenib and erlotinib combination study, B9 cells grown in soft agar were treated with vemurafenib, erlotinib or a combination of the two compounds at the indicated concentrations or DMSO for 3 weeks. Anchorage-independent colonies ≥100 μm were scored using AxioVision Rel 4.8 software (CarlZeiss, Wake Forest, N.C.).
B9 cells grown in soft agar were treated with AREG, TGFα or HBEGF at the indicated concentrations for 3 weeks. Anchorage-independent colonies ≥100 μm were scored. B9 cells grown in soft agar were treated with vemurafenib or a combination of vemurafenib and erlotinib at the indicated concentrations for 3 weeks. Anchorage-independent colonies ≥100 μm were scored.

BRAF V600E = biological target: T1, BRAF V600E (Homo sapiens, UniProt P15056, V600E); assay: BRAF V600E biochemical kinase activity assay (AlphaScreen, biotin-MEK1 substrate); conditions: BRAF V600E biochemical inhibitory activity
T1 construct: purchased Upstate Biotechnology
T1 sequence (P15056 whole entry V600E): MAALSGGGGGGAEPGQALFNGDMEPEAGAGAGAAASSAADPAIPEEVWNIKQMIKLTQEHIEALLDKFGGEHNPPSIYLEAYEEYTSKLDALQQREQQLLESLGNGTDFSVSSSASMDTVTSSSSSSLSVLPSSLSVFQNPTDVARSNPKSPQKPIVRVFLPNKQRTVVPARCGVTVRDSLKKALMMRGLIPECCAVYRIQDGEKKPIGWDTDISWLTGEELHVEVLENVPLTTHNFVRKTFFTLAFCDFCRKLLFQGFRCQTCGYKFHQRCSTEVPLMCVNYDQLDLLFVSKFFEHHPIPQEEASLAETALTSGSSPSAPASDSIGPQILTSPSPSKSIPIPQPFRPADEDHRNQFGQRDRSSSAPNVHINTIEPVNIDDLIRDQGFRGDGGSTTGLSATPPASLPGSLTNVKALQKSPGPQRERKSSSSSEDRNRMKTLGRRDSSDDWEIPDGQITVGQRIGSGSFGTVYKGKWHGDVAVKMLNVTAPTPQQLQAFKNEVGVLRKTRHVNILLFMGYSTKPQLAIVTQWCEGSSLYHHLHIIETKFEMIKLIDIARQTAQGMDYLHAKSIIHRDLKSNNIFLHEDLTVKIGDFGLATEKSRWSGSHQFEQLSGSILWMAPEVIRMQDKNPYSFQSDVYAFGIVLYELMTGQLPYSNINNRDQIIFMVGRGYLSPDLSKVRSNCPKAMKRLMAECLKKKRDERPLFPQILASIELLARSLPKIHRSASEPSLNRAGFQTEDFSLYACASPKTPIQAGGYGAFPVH

B9 (HRAS Q61L) cell line = assay: B9 P-ERK cell activation assay (AlphaScreen); type: cell-based, mouse; conditions: Mus musculus, P-ERK cell activation, B9, read-out: Cell activity (EC50 μM) B9_pERK
Procedure, shortened: (§1)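 Phospho-ERK1/2 (Thr202/Tyr204) in lysates quantified via AlphaScreen bead proximity, after one-hour, 37° C. exposure of cells to eight compound concentrations. Lines: IPC-298 human melanoma with activated NRAS; B9 mouse squamous carcinoma with activated HRAS.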

[1] = system: IPC-298 (NRAS Q61L) cell line; assay: IPC-298 P-ERK cell activation assay (AlphaScreen); type: cell-based, human; conditions: Homo sapiens, P-ERK cell activation, IPC-298, read-out: Cell activity (EC50 μM) IPC-298_P-ERK
Procedure, shortened: as §1

[2] = system: A375 (BRAF V600E) cell line; assay: A375 P-ERK inhibition assay (AlphaScreen); type: cell-based, human; conditions: Homo sapiens, A-375; A375_P-ERK
Procedure, shortened: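 Phospho-ERK1/2 (Thr202/Tyr204) detected in lysates by AlphaScreen proximity signal, pairing a total-ERK antibody with a phospho-specific antibody. Before lysis, A375 cells received compound as an 8-point titration for one hour at 37° C.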

| SMILES | IC50 (BRAF V600E) [µM] | EC50 (B9 (HRAS Q61L) cell line; numeric bounds) [µM] | EC50 ([1]; numeric bounds) [µM] | IC50 [2] [µM] | EC50 (B9 (HRAS Q61L) cell line; class symbols) [µM] | EC50 ([1]; class symbols) [µM] | B9 colony formation / anchorage-independent growth in soft agar (B9 cells; colonies ≥100 μm scored) | effect on vemurafenib-induced B9 colony formation (B9 cells) | effect on vemurafenib-induced B9 colony formation (B9 cells; listed as erlotinib) |
| --- | --- | --- | --- | --- | --- | --- | --- | --- | --- |
| CCCS(=O)(=O)Nc1ccc(F)c(C(=O)c2c[nH]c3ncc(Cl)cc23)c1F [P-1000, N-[3-(5-chloro-1H-pyrrolo[2,3-b]pyridine-3-carbonyl)-2,4-difluoro-phenyl]propane-1-sulfonamide] |  |  |  |  |  |  | stimulated B9 colony formation; also recorded: increased anchorage independent cell growth |  |  |
| C#Cc1cccc(Nc2ncnc3cc(OCCOC)c(OCCOC)cc23)c1 [Erlotinib] |  |  |  |  |  |  |  | inhibited | antagonizes vemurafenib-induced B9 colony formation |
| CC(C)(C)c1nc(-c2cccc(NS(=O)(=O)N3CCCC3)c2F)c(-c2ncnc3[nH]cnc23)s1 [P-2125, N-[3-[2-tert-butyl-5-(9H-purin-6-yl)thiazol-4-yl]-2-fluoro-phenyl]pyrrolidine-1-sulfonamide] | 0.0001 to 1 | > 10 | > 1 | 0.0001 to 1 |  |  |  |  |  |
| COC(=O)N[C@@H](C)CNc1nccc(-c2nn(C(C)C)cc2-c2cc(Cl)cc(NS(=O)(=O)C3CC3)c2F)n1 [P-2170, methyl N-[(1S)-2-[[4-[4-[5-chloro-3-(cyclopropylsulfonylamino)-2-fluoro-phenyl]-1-isopropyl-pyrazol-3-yl]pyrimidin-2-yl]amino]-1-methyl-ethyl]carbamate] | 0.0001 to 1 |  |  | 0.0001 to 1 | 0.0001 to 1 | 0.0001 to 1 |  |  |  |
| O=C(c1cc(F)cc(NS(=O)(=O)N2CCCC2)c1F)c1c[nH]c2ncc(-c3cnc(C4CC4)nc3)cc12 [P-2171, N-[3-[5-(2-cyclopropylpyrimidin-5-yl)-1H-pyrrolo[2,3-b]pyridine-3-carbonyl]-2,5-difluoro-phenyl]pyrrolidine-1-sulfonamide] | 0.0001 to 1 | > 10 | > 1 | 0.0001 to 1 |  |  |  |  |  |
| O=C(c1c(F)ccc(NS(=O)(=O)N2CCOCC2)c1F)c1c[nH]c2nccc(Cl)c12 [P-2024, N-[3-(4-chloro-1H-pyrrolo[2,3-b]pyridine-3-carbonyl)-2,4-difluoro-phenyl]morpholine-4-sulfonamide] | 0.0001 to 1 | > 10 | > 10 | 0.0001 to 1 |  |  |  |  |  |
| N#Cc1ccnc2[nH]cc(C(=O)c3c(F)ccc(NS(=O)(=O)N4CCOCC4)c3F)c12 [P-2022, N-[3-(4-cyano-1H-pyrrolo[2,3-b]pyridine-3-carbonyl)-2,4-difluoro-phenyl]morpholine-4-sulfonamide] | 0.0001 to 1 | > 10 | > 10 | 0.0001 to 1 |  |  |  |  |  |
| COC(=O)N[C@@H](C)CNc1nccc(-c2nn(C(C)C)cc2-c2cc(Cl)cc(NS(=O)(=O)N3CCC3)c2F)n1 [P-2163, methyl N-[(1S)-2-[[4-[4-[3-(azetidin-1-ylsulfonylamino)-5-chloro-2-fluoro-phenyl]-1-isopropyl-pyrazol-3-yl]pyrimidin-2-yl]amino]-1-methyl-ethyl]carbamate] | 1 to 10 | > 10 | > 10 | 1 to 10 |  |  |  |  |  |
| CCN(C)S(=O)(=O)Nc1cccc(-c2nc(C(C)(C)C)sc2-c2ccnc(N)n2)c1F [P-2089, 5-(2-aminopyrimidin-4-yl)-2-tert-butyl-4-[3-[[ethyl(methyl)sulfamoyl]amino]-2-fluoro-phenyl]thiazole] | 0.0001 to 1 | > 1 | > 1 | 0.0001 to 1 |  |  |  |  |  |
| O=C(c1c(F)ccc(NS(=O)(=O)C2CCC2)c1F)c1c[nH]c2ncncc12 [P-2030, N-[2,4-difluoro-3-(7H-pyrrolo[2,3-d]pyrimidine-5-carbonyl)phenyl]cyclobutanesulfonamide] | 1 to 10 | > 10 | > 10 | 1 to 10 |  |  |  |  |  |

Further lines, with some results ahead:

| IC50 (BRAF V600E) [µM] | EC50 (B9 (HRAS Q61L) cell line; numeric bounds) [µM] | EC50 ([1]; numeric bounds) [µM] | IC50 [2] [µM] | EC50 (B9 (HRAS Q61L) cell line; class symbols) [µM] | EC50 ([1]; class symbols) [µM] | SMILES | B9 colony formation / anchorage-independent growth in soft agar (B9 cells; colonies ≥100 μm scored) | effect on vemurafenib-induced B9 colony formation (B9 cells) | effect on vemurafenib-induced B9 colony formation (B9 cells; listed as erlotinib) |
| --- | --- | --- | --- | --- | --- | --- | --- | --- | --- |
| 0.0001 to 1 | > 10 | > 10 | 0.0001 to 1 |  |  | CCN(C)S(=O)(=O)Nc1ccc(F)c(C(=O)c2c[nH]c3ncnc(NCC4CC4)c23)c1F [P-2061, 4-(cyclopropylmethylamino)-5-[3-[[ethyl(methyl)sulfamoyl]amino]-2,6-difluoro-benzoyl]-7H-pyrrolo[2,3-d]pyrimidine] |  |  |  |
| 0.0001 to 1 | > 10 | > 10 | 0.0001 to 1 |  |  | O=C(c1cccc(NS(=O)(=O)N2CCCC2)c1F)c1c[nH]c2ncnc(NCCN3CCOCC3)c12 [P-2110, N-[2-fluoro-3-[4-(2-morpholinoethylamino)-7H-pyrrolo[2,3-d]pyrimidine-5-carbonyl]phenyl]pyrrolidine-1-sulfonamide] |  |  |  |
| 0.0001 to 1 | > 10 | > 10 | 0.0001 to 1 |  |  | O=C(c1cccc(NS(=O)(=O)N2CCCC2)c1F)c1c[nH]c2ncnc(C3CC3)c12 [P-2078, N-[3-(4-cyclopropyl-7H-pyrrolo[2,3-d]pyrimidine-5-carbonyl)-2-fluoro-phenyl]pyrrolidine-1-sulfonamide] |  |  |  |
| 0.0001 to 1 | > 10 | > 10 | 0.0001 to 1 |  |  | CCN(C)S(=O)(=O)Nc1ccc(F)c(C(=O)c2c[nH]c3ncnc(NC(C)C)c23)c1F [P-2117, 5-[3-[[ethyl(methyl)sulfamoyl]amino]-2,6-difluoro-benzoyl]-4-(isopropylamino)-7H-pyrrolo[2,3-d]pyrimidine] |  |  |  |
| 1 to 10 | > 10 | > 10 | 1 to 10 |  |  | CC(C)Nc1ncnc2[nH]cc(C(=O)c3c(F)ccc(NS(=O)(=O)C4CCC4)c3F)c12 [P-2043, N-[2,4-difluoro-3-[4-(isopropylamino)-7H-pyrrolo[2,3-d]pyrimidine-5-carbonyl]phenyl]cyclobutanesulfonamide] |  |  |  |
| 0.0001 to 1 | > 10 | > 10 | 0.0001 to 1 |  |  | CCN(C)S(=O)(=O)Nc1cccc(C(=O)c2c[nH]c3ncnc(NC)c23)c1F [P-2062, 5-[3-[[ethyl(methyl)sulfamoyl]amino]-2-fluoro-benzoyl]-4-(methylamino)-7H-pyrrolo[2,3-d]pyrimidine] |  |  |  |
| 0.0001 to 1 | > 10 | > 10 | 1 to 10 |  |  | NCCNc1ncnc2[nH]cc(C(=O)c3cccc(NS(=O)(=O)N4CCCC4)c3F)c12 [P-2102, N-[3-[4-(2-aminoethylamino)-7H-pyrrolo[2,3-d]pyrimidine-5-carbonyl]-2-fluoro-phenyl]pyrrolidine-1-sulfonamide] |  |  |  |
| 0.0001 to 1 | > 10 | > 10 | 0.0001 to 1 |  |  | CCN(C)S(=O)(=O)Nc1ccc(F)c(C(=O)c2c[nH]c3ncnc(NC4CCC4)c23)c1F [P-2101, 4-(cyclobutylamino)-5-[3-[[ethyl(methyl)sulfamoyl]amino]-2,6-difluoro-benzoyl]-7H-pyrrolo[2,3-d]pyrimidine] |  |  |  |
| 0.0001 to 1 | > 10 | > 10 | 0.0001 to 1 |  |  | CCN(C)S(=O)(=O)Nc1cccc(C(=O)c2c[nH]c3ncnc(OC)c23)c1F [P-2092, 5-[3-[[ethyl(methyl)sulfamoyl]amino]-2-fluoro-benzoyl]-4-methoxy-7H-pyrrolo[2,3-d]pyrimidine] |  |  |  |
| 0.0001 to 1 | > 10 | > 10 | 0.0001 to 1 |  |  | CC(C)(O)CCNc1ncnc2[nH]cc(C(=O)c3cccc(NS(=O)(=O)N4CCCC4)c3F)c12 [P-2108, N-[2-fluoro-3-[4-[(3-hydroxy-3-methyl-butyl)amino]-7H-pyrrolo[2,3-d]pyrimidine-5-carbonyl]phenyl]pyrrolidine-1-sulfonamide] |  |  |  |
| 0.0001 to 1 | > 10 | > 10 | 0.0001 to 1 |  |  | CCN(C)S(=O)(=O)Nc1cccc(C(=O)c2c[nH]c3ncnc(NC4CCOCC4)c23)c1F [P-2075, 5-[3-[[ethyl(methyl)sulfamoyl]amino]-2-fluoro-benzoyl]-4-(tetrahydropyran-4-ylamino)-7H-pyrrolo[2,3-d]pyrimidine] |  |  |  |
| 0.0001 to 1 | > 10 | > 10 | 0.0001 to 1 |  |  | O=C(c1cccc(NS(=O)(=O)N2CCCC2)c1F)c1c[nH]c2ncnc(NCCCN3CCOCC3)c12 [P-2111, N-[2-fluoro-3-[4-(3-morpholinopropylamino)-7H-pyrrolo[2,3-d]pyrimidine-5-carbonyl]phenyl]pyrrolidine-1-sulfonamide] |  |  |  |
